In publication PMC3867380, “Fluorescence Imaging-Based High-Throughput Screening of Fast- and Slow-Cycling LOV Proteins” (PLoS ONE, 2013):

Assays:
[1] = target: T1, AsLOV2 (second LOV domain of Avena sativa phototropin 1) (Avena sativa, UniProt O49003, V416C/T418P/N425P/I466V/F494K); assay: flavin fluorescence recovery imaging in E. coli colonies after blue light; assay type: cell-based; conditions: colonies on agar, 50 °C and 25 °C; endogenous flavin; blue-light-induced reversible covalent adduct
T1 construct: gene NPH1-1; LOV2 domain with J-alpha helix, residues 404-560; N-terminal 6xHis tag; synthetic cDNA with mammalian codons in pCold I; E. coli DH5alpha; TALON purified
T1 sequence (O49003 entry or part of it V416C/T418P/N425P/I466V/F494K): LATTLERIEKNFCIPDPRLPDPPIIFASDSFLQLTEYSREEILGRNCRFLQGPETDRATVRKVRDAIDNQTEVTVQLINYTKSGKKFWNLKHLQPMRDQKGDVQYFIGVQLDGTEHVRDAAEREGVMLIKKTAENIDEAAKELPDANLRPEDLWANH

[2] = target: T2, AsLOV2 (second LOV domain of Avena sativa phototropin 1) (Avena sativa, UniProt O49003, V416T/T418S); assay: as above; assay type: cell-based; conditions: colonies on agar, on ice and 25 °C; endogenous flavin; blue-light-induced reversible covalent adduct
T2 construct: gene NPH1-1; LOV2 domain with J-alpha helix, residues 404-560; N-terminal 6xHis tag; synthetic cDNA with mammalian codons in pCold I; E. coli DH5alpha; TALON purified
T2 sequence (O49003 entry or part of it V416T/T418S): as the sequence (O49003 entry or part of it V416C/T418P/N425P/I466V/F494K) above, with C13T, P15S, P22N, V63I, K91F counted along it

[3] = target: T3, AsLOV2 (second LOV domain of Avena sativa phototropin 1) (Avena sativa, UniProt O49003, N425S/I427L/I466M); assay: as above; assay type: cell-based; conditions: colonies on agar, on ice and 25 °C; endogenous flavin; blue-light-induced reversible covalent adduct
T3 construct: gene NPH1-1; LOV2 domain with J-alpha helix, residues 404-560; N-terminal 6xHis tag; synthetic cDNA with mammalian codons in pCold I; E. coli DH5alpha; TALON purified
T3 sequence (O49003 entry or part of it N425S/I427L/I466M): as the sequence (O49003 entry or part of it V416C/T418P/N425P/I466V/F494K) above, with C13V, P15T, P22S, I24L, V63M, K91F counted along it

[4] = target: T4, AsLOV2 (second LOV domain of Avena sativa phototropin 1) (Avena sativa, UniProt O49003); assay: absorption and fluorescence spectra of co-purified flavin; photoadduct formation and dark recovery at […] nm; assay type: binding; conditions: room temperature; pH 7.5; flavin co-purified from E. coli; blue-light-induced reversible covalent adduct with Cys450
T4 construct: gene NPH1-1; LOV2 domain with J-alpha helix, residues 404-560; N-terminal 6xHis tag; synthetic cDNA with mammalian codons in pCold I; E. coli DH5alpha; TALON purified
T4 sequence (O49003 entry or part of it): as the sequence (O49003 entry or part of it V416C/T418P/N425P/I466V/F494K) above, with C13V, P15T, P22N, V63I, K91F counted along it

[5] = target: T5, AsLOV2 (second LOV domain of Avena sativa phototropin 1) (Avena sativa, UniProt O49003, N425Q/I427V); assay: flavin fluorescence recovery imaging in E. coli colonies after blue light; assay type: cell-based; conditions: colonies on agar, on ice and 25 °C; endogenous flavin; blue-light-induced reversible covalent adduct
T5 construct: gene NPH1-1; LOV2 domain with J-alpha helix, residues 404-560; N-terminal 6xHis tag; synthetic cDNA with mammalian codons in pCold I; E. coli DH5alpha; TALON purified
T5 sequence (O49003 entry or part of it N425Q/I427V): as the sequence (O49003 entry or part of it V416C/T418P/N425P/I466V/F494K) above, with C13V, P15T, P22Q, I24V, V63I, K91F counted along it

Structure (SMILES): Cc1cc2nc3c(=O)[nH]c(=O)nc-3n(C[C@H](O)[C@H](O)[C@H](O)COP(=O)(O)O)c2cc1C [FMN]
- flavin fluorescence recovery imaging in E. coli colonies after blue light [1]: AsLOV2-V416L and AsLOV2-V416C/T418P/N425P/I466V/F494K exhibited particularly slower thermal reversion kinetics than others
- flavin fluorescence recovery imaging in E. coli colonies after blue light [2]: V416T/T418S exhibited particularly faster thermal reversion kinetics than others
- flavin fluorescence recovery imaging in E. coli colonies after blue light [3]: substitution of V416T, N425Q/I427V, N425S/I427L/I466M and V416T/T418S exhibited particularly faster thermal reversion kinetics
- absorption and fluorescence spectra of co-purified flavin; photoadduct formation [4]: AsLOV2 is a photosensory domain that binds with FMN as a cofactor
- flavin fluorescence recovery imaging in E. coli colonies after blue light [5]: substitution of V416T, N425Q/I427V, N425S/I427L/I466M and V416T/T418S exhibited particularly faster thermal reversion kinetics
